{
  "source": "patent US20070196514A1",
  "about": "“Prostate cancer treatment with glycogen synthase kinase-3beta inhibitors” (priority 2006, published 2007)",
  "key": {"LNCaP cells [1]": {"test_system": "LNCaP cells", "assay": "MTT cell growth assay", "assay_type": "cell-based, human", "conditions": "three days; for cell growth (MTT): increasing doses in full culture medium, dose-responsive; for cell growth inhibition (MTT): equimolecular concentrations of LiCl, NaCl, KCl", "protocol": "(§1) For MTT-based cell growth assays, cells seeded in 96-well plates were serum-starved for 48 hours, and were then treated with vehicle or different reagents for different time periods as indicated in the figures. MTT assay were carried out using a pre-assembled kit (Sigma) according to the manufacturer's manual.\n(§2) To rule out the eventual intervention of the chloride anion and the osmotic disturbance, the effect of LiCl was compared with sodium chloride (“NaCl”) and potassium chloride (“KCl”) at equimolecular concentrations in both LNCaP and PC-3 cell lines. In addition, the androgen-insensitive C4-2 cell line was included. To easily handle the experiments while multiple comparisons were taken in place, a MTT assay was used to assess cell growth.\nLastly, two GSK-3β-specific small chemical inhibitors, SB216763 and BIO, were used to verify that LiCl-induced suppression of cell growth is due to GSK-3β inhibition. LNCaP cells were seeded as above and then treated with increasing doses of the inhibitors in a full culture medium. Cell growth was assessed three days later by MTT assay."}, "C4-2 cells [2]": {"test_system": "C4-2 cells", "assay": "cell cycle analysis by flow cytometry (PI)", "assay_type": "cell-based, human", "conditions": "12 hours treatment", "protocol": "(§3) For cell cycle analysis, serum-starved cells were left untreated or treated with different inhibitors for various time periods as indicated in the figures. After trypsinization, the cells were fixed and stained with propidium iodide (“PI”). Cell cycle distribution of PI-labeled cells was analyzed on a fluorescence activated cell sorter (Model EPICS XL-MCL, Beckman-Coulter Co., Fullerton, Calif.) as described previously (Miyake 2001).\n(§4) The effect of GSK-3β SB216763 on cell cycle distribution in AR-null PC-3 and androgen-insensitive C4-2 cell lines were also examined."}, "PC-3 cells [3]": {"test_system": "PC-3 cells", "assay": "cell cycle analysis by flow cytometry (PI)", "assay_type": "cell-based, human", "conditions": "12 hours treatment", "protocol": "as §3, §4"}, "LNCaP-BclxL xenografts": {"test_system": "LNCaP-BclxL xenografts", "assay": "LNCaP-BclxL xenograft model", "assay_type": "in vivo, castrated nude mice", "protocol": "All animal studies were conducted under an approved Institutional Animal Care and Use Committee protocol. Single cell suspensions (2×10^6 cells in 0.1 ml of RPMI1640 medium plus 10% FBS) were inoculated subcutaneously (s.c.) into the rear flanks (two sites/mouse) of 6 to 7 weeks old male nude mice (Charles River, Wilmington, Mass.). For protocol A, mice were randomly divided into two groups (5 animals each). On next day after inoculation, one group of animals received i.p. injection of LiCl at a daily dose of 2 mg/kg body weight. LiCl was dissolved in PBS. The control groups of animals received PBS alone in the same volume. Xenograft development and growth were monitored for 8 weeks. The tumor dimensions were measured twice a week. The tumor volume was calculated by the formula of L×W×H×0.5236 (Miyake 2001). At the end of treatment, xenograft tumors were extirpated, and the final tumor size and weight, as well as animal weight were measured. For protocol B, treatment began until tumor became palpable or 50 mm^3 in size, and LiCl or PBS was injected (5 animals each group) as above for a two-week course. Tumor size and weight were measured at the end of treatment. For BrdU in vivo labeling, the animals were injected i.p. with 0.5 ml of a 10-mM BrdU solution (Invitrogen) 2 hours before sacrifice. For experiments involving LNCaP-BclxL SB216763 subline cells (Liao 2005) were inoculated as above, and SB216763 treatment was started two weeks later when palpable xenografts were established. The SB216763 for animal use was purchased from Biomol (Plymouth Meeting, Pa.) and dissolved in a formula containing 50% N,N-dimethylacetamide (“DMA”), 45% polyethylene glycol 400 (“PEG-400”) and 5% Tween-80. SB216763 (2 mg/kilogram/bodyweight) or the solvent in 20 μl volume was injected i.p. three times a week. Tumor growth was monitored as discussed herein. […]"}, "AR-null PC-3 cells": {"test_system": "AR-null PC-3 cells", "conditions": "Mazor 2004; cited from earlier work"}, "C4-2 cells [4]": {"test_system": "C4-2 cells", "assay": "MTT cell growth assay", "assay_type": "cell-based, human", "conditions": "equimolecular concentrations of LiCl, NaCl, KCl, three days", "protocol": "as §1, §2"}, "PC-3 cells [5]": {"test_system": "PC-3 cells", "assay": "MTT cell growth assay", "assay_type": "cell-based, human", "conditions": "equimolecular concentrations of LiCl, NaCl, KCl, three days", "protocol": "as §1, §2"}, "LNCaP cells [6]": {"test_system": "LNCaP cells", "assay": "Western blot of cell cycle-related proteins", "assay_type": "cell-based, human", "conditions": "BIO at different doses for 24 hours", "protocol": "Western blot was carried out as described previously (Liao 2004, Liao 2003, and Liao 2005). Briefly, cells were pellets and lysed in radio-immunoprecipitation assay (“RIPA”) buffer containing protease inhibitors (Half™ Protease Inhibitor Cocktail Kit, PIERCE, Rockford, Ill.). Proteins were separated on SDS-PAGE gels and transferred to Immuno-Blot™ PVDF membrane (BIO-RAD, Hercules, Calif.). Membranes were blocked in a tris-buffered solution plus Tween 20 (“TBST”) solution with 5% nonfat dry milk and incubated with primary antibodies overnight at 4° C. Immunoreactive signals were detected by horseradish peroxidase-conjugated secondary antibodies (Santa Cruz Biotech., Santa Cruz, Calif.) followed by SuperSingnal® WestFeml® Maximum Sensitivity Substrate (PIERCE).\nTo verify those alterations at a protein level, two series experiments were conducted using Western blot technique. The first involved a time-course experiment. After serum starvation, LNCaP cells were left untreated or treated as before with LiCl for up to 24 hours. Cells were harvested at 18-24 hours.\nNext, a dose-response experiment was performed. Following serum starvation for 24 hours, LNCaP cells were treated with BIO at different doses for another 24 hours. Control cells received the vehicle as treatment."}, "[7]": {"assay": "estimated serum lithium level in mice", "assay_type": "in vivo", "conditions": "about 2 mg/kg of body weight, estimated (Moore 2002)", "text": "Based on these preliminary results, therapeutically effective dosage levels include those substantially below those used for treatment of bipolar disorders with lithium in humans, which are reported to result in a serum level between about 0.2 and 1.5 mEq/L (Noble 2005), and is usually over 0.8 mEq/L."}, "[8]": {"conditions": "humans; cited from earlier work"}},
  "data": [
    {"smiles": "Cn1cc(C2=C(c3ccc(Cl)cc3Cl)C(=O)NC2=O)c2ccccc21", "note": "[SB216763, 3-(2,4-Dichlorophenyl)-4-(1-methyl-1H-indol-3yl)-1H-pyrrole-2,5-dione]", "values": [
      {"measurement": "cell growth (MTT)", "setting": "LNCaP cells [1]", "value": "significantly suppressed"},
      {"measurement": "cell cycle distribution (S-phase arrest)", "setting": "C4-2 cells [2]", "value": "arrested these cells in S-phase"},
      {"measurement": "cell cycle distribution (S-phase arrest)", "setting": "PC-3 cells [3]", "value": "arrested these cells in S-phase"},
      {"measurement": "side effects", "setting": "LNCaP-BclxL xenografts; SB216763 2 mg/kg i.p.", "value": "No side effects"},
      {"measurement": "tumor growth vs control animals", "setting": "LNCaP-BclxL xenografts; SB216763 2 mg/kg i.p. every two days, palpable tumors", "value": "largely suppressed"},
      {"measurement": "treatment duration after which difference in tumor volume became significant", "setting": "LNCaP-BclxL xenografts; SB216763 2 mg/kg i.p. vs vehicle", "value": 5, "unit": "week"},
      {"measurement": "growth of AR-null PC-3 cells", "setting": "AR-null PC-3 cells", "value": "did not affect growth"}
    ]},
    {"smiles": "[Cl-].[Na+]", "note": "[NaCl, sodium chloride]", "values": [
      {"measurement": "cell growth inhibition (MTT)", "setting": "LNCaP cells [1]", "value": "did not cause any significant inhibition"},
      {"measurement": "cell growth inhibition (MTT)", "setting": "C4-2 cells [4]", "value": "did not cause any significant inhibition"},
      {"measurement": "cell growth inhibition (MTT)", "setting": "PC-3 cells [5]", "value": "did not cause any significant inhibition"}
    ]},
    {"smiles": "O=C1Nc2cc(Br)ccc2/C1=C1/Nc2ccccc2/C1=N\\O", "note": "[BIO, 6-bromoindirubin-3′-oxime]", "values": [
      {"measurement": "cell growth (MTT)", "setting": "LNCaP cells [1]", "value": "significantly suppressed"},
      {"measurement": "p21CIP1 protein expression (Western blot)", "setting": "LNCaP cells [6]", "value": "increased dramatically"},
      {"measurement": "protein levels of cyclins A and E, cdc6 and cdc25C (Western blot)", "setting": "LNCaP cells [6]; dose-dependent", "value": "significantly reduced"}
    ]},
    {"smiles": "[Cl-].[K+]", "note": "[KCl, potassium chloride]", "values": [
      {"measurement": "cell growth inhibition (MTT)", "setting": "LNCaP cells [1]", "value": "did not cause any significant inhibition"},
      {"measurement": "cell growth inhibition (MTT)", "setting": "C4-2 cells [4]", "value": "did not cause any significant inhibition"},
      {"measurement": "cell growth inhibition (MTT)", "setting": "PC-3 cells [5]", "value": "did not cause any significant inhibition"}
    ]},
    {"smiles": "[Li]", "note": "[lithium]", "values": [
      {"measurement": "serum level", "setting": "[7]", "value": "about 0.02 mEq/L"},
      {"measurement": "usual serum level at dosages used for treatment of bipolar disorders", "setting": "[8]", "value": "over 0.8 mEq/L"}
    ]}
  ]
}
